Test results published in PubChem BioAssay AID1259407 (Chemical Carcinogenesis Research Information System (CCRIS), 2018).
Activity calls are given as the source filed them. How the calls were made is not given here.

Test system: CCRIS mutagenicity, Ames/micronucleus/aberration tests
Assay: CCRIS mutagenicity studies
[1] = Test System: AMES SALMONELLA TYPHIMURIUM, Strain/Indicator: TA98, Metabolic Activation: NONE, Method: PREINCUBATION
[2] = Test System: AMES SALMONELLA TYPHIMURIUM, Strain/Indicator: TA100, Metabolic Activation: NONE, Method: PREINCUBATION
[3] = Test System: AMES SALMONELLA TYPHIMURIUM, Strain/Indicator: TA104, Metabolic Activation: NONE, Method: PREINCUBATION
[4] = Test System: AMES SALMONELLA TYPHIMURIUM, Strain/Indicator: TA98, Metabolic Activation: NONE, Method: STANDARD PLATE
[5] = Test System: AMES SALMONELLA TYPHIMURIUM, Strain/Indicator: TA98, Metabolic Activation: RAT, LIVER, S-9, AROCLOR 1254, Method: STANDARD PLATE
[6] = Test System: AMES SALMONELLA TYPHIMURIUM, Strain/Indicator: TA100, Metabolic Activation: NONE, Method: STANDARD PLATE
[7] = Test System: AMES SALMONELLA TYPHIMURIUM, Strain/Indicator: TA100, Metabolic Activation: RAT, LIVER, S-9, AROCLOR 1254, Method: STANDARD PLATE
[8] = Test System: AMES SALMONELLA TYPHIMURIUM, Strain/Indicator: TA98, Metabolic Activation: RAT, LIVER, S-9, PCB, Method: PREINCUBATION

CCO
mutagenic call (Test System: AMES SALMONELLA TYPHIMURIUM, Strain/Indicator: TA97, Metabolic Activation: HAMSTER, LIVER, S-9, AROCLOR 1254 (10%), Method: PREINCUBATION): inactive; negative
mutagenic call (Test System: AMES SALMONELLA TYPHIMURIUM, Strain/Indicator: TA97, Metabolic Activation: HAMSTER, LIVER, S-9, AROCLOR 1254 (30%), Method: PREINCUBATION): inactive; negative
mutagenic call (Test System: AMES SALMONELLA TYPHIMURIUM, Strain/Indicator: TA97, Metabolic Activation: NONE, Method: PREINCUBATION): inactive; negative
mutagenic call (Test System: AMES SALMONELLA TYPHIMURIUM, Strain/Indicator: TA97, Metabolic Activation: RAT, LIVER, S-9, AROCLOR 1254 (10%), Method: PREINCUBATION): inactive; negative
mutagenic call (Test System: AMES SALMONELLA TYPHIMURIUM, Strain/Indicator: TA97, Metabolic Activation: RAT, LIVER, S-9, AROCLOR 1254 (30%), Method: PREINCUBATION): inactive; negative
mutagenic call (Test System: AMES SALMONELLA TYPHIMURIUM, Strain/Indicator: TA98, Metabolic Activation: HAMSTER, LIVER, S-9, AROCLOR 1254 (10 OR 30%), Method: PREINCUBATION): inactive; negative
mutagenic call [1]: inactive; negative
mutagenic call (Test System: AMES SALMONELLA TYPHIMURIUM, Strain/Indicator: TA98, Metabolic Activation: RAT, LIVER, S-9, AROCLOR 1254 (10 OR 30%), Method: PREINCUBATION): inactive; negative
mutagenic call (Test System: AMES SALMONELLA TYPHIMURIUM, Strain/Indicator: TA100, Metabolic Activation: HAMSTER, LIVER, S-9, AROCLOR 1254 (10 OR 30%), Method: PREINCUBATION): inactive; negative
mutagenic call [2]: inactive; negative
mutagenic call (Test System: AMES SALMONELLA TYPHIMURIUM, Strain/Indicator: TA100, Metabolic Activation: RAT, LIVER, S-9, AROCLOR 1254 (10 OR 30%), Method: PREINCUBATION): inactive; negative
mutagenic call (Test System: AMES SALMONELLA TYPHIMURIUM, Strain/Indicator: TA104, Metabolic Activation: HAMSTER, LIVER, S-9, AROCLOR 1254 (10 OR 30%), Method: PREINCUBATION): inactive; negative
mutagenic call [3]: inactive; negative
mutagenic call (Test System: AMES SALMONELLA TYPHIMURIUM, Strain/Indicator: TA104, Metabolic Activation: RAT, LIVER, S-9, AROCLOR 1254 (10 OR 30%), Method: PREINCUBATION): inactive; negative
mutagenic call (Test System: AMES SALMONELLA TYPHIMURIUM, Strain/Indicator: TA1535, Metabolic Activation: HAMSTER, LIVER, S-9, AROCLOR 1254 (10 OR 30%), Method: PREINCUBATION): inactive; negative
mutagenic call (Test System: AMES SALMONELLA TYPHIMURIUM, Strain/Indicator: TA1535, Metabolic Activation: NONE, Method: PREINCUBATION): inactive; negative
mutagenic call (Test System: AMES SALMONELLA TYPHIMURIUM, Strain/Indicator: TA1535, Metabolic Activation: RAT, LIVER, S-9, AROCLOR 1254 (10 OR 30%), Method: PREINCUBATION): inactive; negative
mutagenic call (Test System: MOUSE LYMPHOMA, Strain/Indicator: L5178Y (TK+/TK-), Metabolic Activation: NONE, Method: SUSPENSION/PLATE): inactive; negative
mutagenic call (Test System: MOUSE LYMPHOMA, Strain/Indicator: L5178Y (TK+/TK-), Metabolic Activation: RAT, LIVER, S-9, AROCLOR 1254, Method: SUSPENSION/PLATE): inactive; negative

O=S(=O)(O)OCc1cc2ccccc2c2ccc3ccccc3c12
mutagenic call [1]: active; positive

CNC(=O)N(C)c1nc2ccccc2s1
mutagenic call [4]: inactive; negative
mutagenic call [5]: inactive; negative
mutagenic call [6]: inactive; negative
mutagenic call [7]: inactive; negative

CN1CCCC1=O
mutagenic call (Test System: AMES SALMONELLA TYPHIMURIUM, Strain/Indicator: TA97, Metabolic Activation: NONE, Method: STANDARD PLATE): inactive; negative
mutagenic call (Test System: AMES SALMONELLA TYPHIMURIUM, Strain/Indicator: TA97, Metabolic Activation: RAT, LIVER, S-9, AROCLOR 1254, Method: STANDARD PLATE): inactive; negative
mutagenic call [1]: inactive; negative
mutagenic call [4]: inactive; negative
mutagenic call (Test System: AMES SALMONELLA TYPHIMURIUM, Strain/Indicator: TA98, Metabolic Activation: RAT, LIVER, S-9, AROCLOR 1254, Method: PREINCUBATION): inactive; negative
mutagenic call [5]: inactive; negative
mutagenic call [6]: inactive; negative
mutagenic call [7]: inactive; negative
mutagenic call (Test System: AMES SALMONELLA TYPHIMURIUM, Strain/Indicator: TA102, Metabolic Activation: NONE, Method: STANDARD PLATE): inactive; negative
mutagenic call (Test System: AMES SALMONELLA TYPHIMURIUM, Strain/Indicator: TA102, Metabolic Activation: RAT, LIVER, S-9, AROCLOR 1254, Method: STANDARD PLATE): inactive; negative
mutagenic call [3]: inactive; negative
mutagenic call (Test System: AMES SALMONELLA TYPHIMURIUM, Strain/Indicator: TA104, Metabolic Activation: NONE, Method: STANDARD PLATE): inactive; negative
mutagenic call (Test System: AMES SALMONELLA TYPHIMURIUM, Strain/Indicator: TA104, Metabolic Activation: RAT, LIVER, S-9, AROCLOR 1254, Method: PREINCUBATION): inactive; negative
mutagenic call (Test System: AMES SALMONELLA TYPHIMURIUM, Strain/Indicator: TA104, Metabolic Activation: RAT, LIVER, S-9, AROCLOR 1254, Method: STANDARD PLATE): inactive; negative
mutagenic call (Test System: AMES SALMONELLA TYPHIMURIUM, Strain/Indicator: TA2638, Metabolic Activation: NONE, Method: STANDARD PLATE): inactive; negative
mutagenic call (Test System: AMES SALMONELLA TYPHIMURIUM, Strain/Indicator: TA2638, Metabolic Activation: RAT, LIVER, S-9, AROCLOR 1254, Method: STANDARD PLATE): inactive; negative
mutagenic call (Test System: AMES SALMONELLA TYPHIMURIUM, Strain/Indicator: UTH8413, Metabolic Activation: NONE, Method: STANDARD PLATE): inactive; negative
mutagenic call (Test System: AMES SALMONELLA TYPHIMURIUM, Strain/Indicator: UTH8413, Metabolic Activation: RAT, LIVER, S-9, AROCLOR 1254, Method: STANDARD PLATE): inactive; negative
mutagenic call (Test System: AMES SALMONELLA TYPHIMURIUM, Strain/Indicator: UTH8414, Metabolic Activation: NONE, Method: STANDARD PLATE): inactive; negative
mutagenic call (Test System: AMES SALMONELLA TYPHIMURIUM, Strain/Indicator: UTH8414, Metabolic Activation: RAT, LIVER, S-9, AROCLOR 1254, Method: STANDARD PLATE): inactive; negative

O=C1c2ccccc2C(=O)c2c1cc(O[C@@H]1O[C@H](CO[C@@H]3OC[C@@H](O)[C@H](O)[C@H]3O)[C@@H](O)[C@H](O)[C@H]1O)c(CO)c2O
mutagenic call [1]: inactive; negative
mutagenic call [8]: inactive; negative
mutagenic call [2]: active; positive
mutagenic call (Test System: AMES SALMONELLA TYPHIMURIUM, Strain/Indicator: TA100, Metabolic Activation: RAT, LIVER, S-9, PCB, Method: PREINCUBATION): inactive; negative
mutagenic call (Test System: UDS RODENT HEPATOCYTES, Strain/Indicator: THY INCORP, Metabolic Activation: NONE): active; positive

NC(=O)N(CCO)N=O
mutagenic call (Test System: E. COLI B, Strain/Indicator: H/R30R, Metabolic Activation: NONE): active; positive
mutagenic call (Test System: E. COLI B, Strain/Indicator: HS30R, Metabolic Activation: NONE): active; positive

Cc1ccc(N=Nc2ccc(C)c(N)c2)cc1N
mutagenic call [1]: inactive; negative
mutagenic call (Test System: AMES SALMONELLA TYPHIMURIUM, Strain/Indicator: TA98, Metabolic Activation: NONE, Method: SUSPENSION/PLATE): inactive; negative
mutagenic call [8]: active; positive
mutagenic call (Test System: AMES SALMONELLA TYPHIMURIUM, Strain/Indicator: TA98, Metabolic Activation: RAT, LIVER, S-9, PHENOBARBITAL AND 5,6-BENZOFLAVONE, Method: SUSPENSION/PLATE): active; positive
mutagenic call (Test System: AMES SALMONELLA TYPHIMURIUM, Strain/Indicator: TA100, Metabolic Activation: NONE, Method: SUSPENSION/PLATE): inactive; negative
mutagenic call (Test System: AMES SALMONELLA TYPHIMURIUM, Strain/Indicator: TA100, Metabolic Activation: RAT, LIVER, S-9, PHENOBARBITAL AND 5,6-BENZOFLAVONE, Method: SUSPENSION/PLATE): active; positive
